According to US7261901B2, “Vaccine and compositions for the prevention and treatment of neisserial infections” (University of Iowa Research Foundation, priority 2001, dated 2007):

Tests used:
primary cervical cells = test: Association and invasion assays, primary cervical cells (cell type not specified); format: cell-based, human; settings: negative controls: 200 nM 4-α phorbol, 3 mM hydrogen peroxide
Protocol: The anti-PLD antibody was screened for specificity to PLD using assays well-known to the art.
(§1) 8. N. gonorrhoeae Attachment to and Invasion of Primary, Human, Cervical Cells. Primary cervical cell monolayers were infected with wild-type or PLD mutant gonococci as outlined above. Variable concentrations of Streptomyces spp. PLD (SsPLD) (Sigma), PMA, or 4-α phorbol were included in association (adherence and invasion) or invasion assays, as noted. Cervical cells were preincubated (30 minutes, 37° C.) with 200 nM PMA or 4-α phorbol before the addition of gonococci. 10 units ml^−1 SsPLD was added simultaneously with gonococci. Alternatively, where noted, cervical cell monolayers were pre-incubated (30 minutes, 37° C.) with pervanadate, which was made by mixing 100 μM ortho-sodium vanadate in 3 mM hydrogen peroxide. In separate assays, infection supernatants were collected from wild-type or PLD mutant-infected cervical cell monolayers, gonococci were removed by filtration through a 0.22 μm syringe filter (i.e., wild-type or mutant primed supernatants) and were added to association and/or invasion assays, as noted. The ability of gonococci to adhere to and/or invade pex and pen cells was quantitatively determined using standard gentimicin-resistance assays, performed as described previously (Edwards et al., 2000), and in which chemical or protein additives were included or excluded from the invasion assay as described above. The total association (i.e., adherence and invasion) of gonococci with pex and pen cells was quantitated by the omission of gentimicin from the above described invasion assay. Percent invasion of N. gonorrhoeae 1291 or 1291ΔPLDin the presence or absence of experimental additives was determined as a function of the original inoculum and the number of colonies formed with subsequent plating of the cellular lysate. A Kruskal-Wallis non-parametric analysis of variance was used to determine the statistical significance of the association and invasion assays described above.

[1] = system: primary ectocervical cells; test: Gentamycin-resistance invasion assay of N. gonorrhoeae 1291 with inhibitors of cytoskeletal motility and protein synthesis, ectocervical cells; format: cell-based, human; settings: for effect on bacterial entry / gonococcal invasion: both cell types (endo- and ectocervical)
Protocol: Invasion Assays in the Presence of Inhibitors of Cytoskeletal Motility and Protein Synthesis: Cervical cells were passed to 12 mm collagen-coated coverslips as outlined above. Prior to infection with N. gonorrhoeae 1291 wild-type cells, primary cell cultures were left untreated, or they were pre-incubated with 300 nM wortmannin (Sigma), 1 μM cytochalasin D (Sigma), or 400 mM ethylene glycol bis-(2-aminoethyl ether)-N,N, N′, N′ tetraacetic acid ((EGTA) Amresco, Solon, Ohio) for 2 h, 30 min, and 30 min, respectively, or they were pretreated with 100 µg/ml nocodazole (Calbiochem-Novabiochem Corp., La Jolla, Calif.) for 1 h at 4° C. followed by a 30 min incubation at 37° C. The requirement for de novo protein synthesis, either by the bacteria or by the primary cervical cells, was tested by pretreatment (30 min, 37° C.) of the bacterial cultures or cervical cell monolayers with 4 μg/ml chloramphenicol (Sigma) or 25 μM cycloheximide (Calbiochem-Novabiochem Corp.), respectively. All chemical reagents used were maintained in the infection medium throughout the course of the infection. […] Infection was allowed to progress at 37° C., 5% CO2, for 1.5 h after which the medium was removed, the cells were rinsed with PBS, and then incubated with KGM-2 containing 100 μg/ml gentamycin to kill extracellular bacteria. Post incubation the cervical cells were lysed with 0.5% saponin to release invasive bacteria. Percent invasion was determined as a function of the original inoculum and the number of colonies formed with subsequent plating of the cellular lysate. A Kruskal-Wallace ANOVA was used to determine the statistical significance of the calculated percent invasion for each of the cytoskeletal motility inhibitors used with respect to the untreated, infected cell cultures.

PLD = PLD activity (Amplex Red Phospholipase D Assay Kit) in gonococci, infected cervical cell lysates, fractions and supernatants; format: biochemical, N. gonorrhoeae
Protocol: (§2) 4. Determination of PLD Activity. PLD activity was accessed using the Amplex™ Red Phospholipase D Assay Kit (Molecular Probes, Eugene Oreg.). Wild-type and PLD mutant gonococci were suspended in PLD assay buffer to a final concentration of 10^7 bacteria ml^−1, and activity was determined according to the manufacturer's protocol. Assessment of PLD activity at acidic pH was determined in a two-step assay according to the manufacturer's protocol. For the first step, 10^8 gonococci were suspended in PBS with the pH adjusted to 3.0, 4.5, or 6.0. Gonococcal suspensions were diluted 10-fold in PLD assay buffer for the second step of the reaction. Cervical cell fractions were prepared as outlined below and PLD activity was assessed at neutral pH according to the manufacturer's protocol.
5. Fractionation of Primary Cervical Cells. Uninfected (control) and infected cervical cell monolayers were lysed in buffer A (50 mM tris, pH 7.5; 10 mM NaCl, 1 mM KCl; 2 mM MgCl2, 1 mM PMSF) by scraping cervical cells from tissue culture dishes placed on ice. The cell lysate was sonicated (two bursts of 20 seconds each). Cell debris and the nuclear fraction was removed by centrifugation (750×g, 10 minutes), and the supernatant from this spin was then subjected to filtration through a low-protein binding 0.22 μm syringe filter to ensure removal of gonococci. Alternatively, gonococci were removed by immunoprecipitation (as described by Wen et al., 2000) using the monoclonal antibody, 2C3, which recognizes the H.8 outer membrane protein of the pathogenic Neisseria. Sucrose was added to the resulting gonococcus-depleted supernatant (S1) to a final concentration of 300 mM. Ultracentrifugation (150,000×g, 90 minutes) was then performed to produce the plasma membrane-(pellet) and cytosol (supernatant 2, S2)-enriched fractions. The membrane-enriched fraction was resuspended in PLD assay buffer (50 mM Tris, 5 mM CaCl2, pH 8.0). S2 was concentrated by filtration through Centricon YM-30 centrifugal filter units (Millipore) after which cytosolic constituents were recovered in PLD assay buffer. Where indicated, prior to infection studies primary pex and pen cell monolayers were treated with 300 nM wortmannin (Sigma) (2 hours, 37° C.) or 1 μM cytochalasin D (Sigma) (30 minutes, 37° C.) to inhibit macropinocytosis of gonococci. Wortmannin and cytochalasin D were maintained in cervical cell cultures during the course of infection.
as §2, with “Determination of” for “4. Determination of”, “Assessment of gonococcal PLD activity” for “Assessment of PLD activity”
Fractionation of Primary Cervical Cells. Uninfected (control) and infected cervical cell monolayers were lysed in buffer A (50 mM tris, pH 7.5; 10 mM NaCl, 1 mM KCl; 2 mM MgCl2, 1 mM PMSF) by scraping cervical cells from tissue culture dishes placed on ice. The cell lysate was sonicated (two bursts of 20 seconds each). […] Sucrose was added to the resulting gonococcus-depleted supernatant (S1) to a final concentration of 300 mM. Ultracentrifugation (150,000×g, 90 minutes) was then performed to produce the plasma membrane-(pellet) and cytosol (supernatant 2, S2)-enriched fractions. The membrane-enriched fraction was resuspended in PLD assay buffer (50 mM Tris, 5 mM CaCl2, pH 8.0). […]

Ectocervical Cells = test: Association and invasion (gentimicin-resistance) assays, primary ectocervical (pex) cells; format: cell-based, human
Protocol: as §1
N. gonorrhoeae Attachment to and Invasion of Primary, Human, Cervical Cells. Primary cervical cell monolayers were infected with wild-type or PLD mutant gonococci as outlined above. Variable concentrations of PtC (Sigma), ethanol, 2-butanol, or Streptomyces spp. PLD (SsPLD) (Sigma) were included in association (adherence and invasion) or invasion assays, as noted. PtC, ethanol, 2-butanol, or 10 units ml^−1 SsPLD were added simultaneously with gonococci. In separate assays, infection supernatants were collected from wild-type or PLD mutant-infected cervical cell monolayers, gonococci were removed by filtration through a 0.22 μm syringe filter (to yield primed wild-type or mutant supernatants), which were then added to association and/or invasion assays, as noted. The ability of gonococci to adhere to and/or invade pex and pen cells was quantitatively determined using standard gentimicin-resistance assays, performed as described previously (Edwards et al., 2000) and in which chemical or protein additives were included or excluded from the invasion assay as described above. The total association (i.e., adherence and invasion) of gonococci with pex and pen cells was quantitated by the omission of gentimicin from the above described invasion assay. Percent invasion of N. gonorrhoeae 1291 or 1291ΔPLD in the presence or absence of experimental additives was determined as a function of the original inoculum and the number of colonies formed with subsequent plating of the cellular lysate. Inhibition of gonococcal attachment and/or invasion by exogenous PtC, ethanol, or 2-butanol was determined as a normalized function of the ability of gonococci to attach to and/or invade primary cervical cells in the absence of the competimer inhibitor. A Kruskal-Wallis non-parametric analysis of variance was used to determine the statistical significance of the association and invasion assays described above.

[2] = system: primary human ectocervical cells; test: rI-domain inhibition of adherence and invasion of primary ectocervical cells by N. gonorrhoeae 1291; format: cell-based
Protocol: Studies were performed evaluating the ability of the rI-domain to inhibit adherence and invasion of primary human ectocervical cells by Neisseria gonorrhoeae. The cervical cells were infected with 107 N. gonorrhoeae strain 1291. Recombinant I-domain is a potent inhibitor of ectocervical cell association by Neisseria gonorrhoeae. As little as 1 ng of rI-domain gives over 90% inhibition of invasion. With decreasing amounts of rI-domain the inhibition decreases in a dose dependent fashion.

[3] = PtC 10.0 µg/ml, wild-type gonococci

## CC1=C[C@H]2[C@@]3(O)[C@H](C)[C@@H](O)[C@]4(O)[C@H]([C@@H]3C=C(CO)C[C@@]2(O)C1=O)C4(C)C [4-α-phorbol]
Primary cervical cells
  effect on gonococcal association, invasion or CR3 cell surface recruitment: had no affect

## O=C(N[C@H](CO)[C@H](O)c1ccc([N+](=O)[O-])cc1)C(Cl)Cl [Chloramphenicol, chloramphenicol]
[1]
  effect on bacterial entry / gonococcal invasion: did not inhibit gonococcal invasion

## C[C@@H]1C[C@@H]([C@H](O)CC2CC(=O)NC(=O)C2)C(=O)[C@@H](C)C1 [Cycloheximide, cycloheximide]
[1]
  effect on bacterial entry / gonococcal invasion: did not inhibit gonococcal invasion

## C=C1[C@@H](C)[C@H]2[C@H](Cc3ccccc3)NC(=O)[C@]23[C@H](OC(C)=O)/C=C/[C@@](C)(O)C(=O)[C@@H](C)C/C=C/[C@H]3[C@@H]1O [Cytochalasin D, cytochalasin D]
[1]
  effect on bacterial entry / gonococcal invasion: prohibited bacterial entry
PLD; Cytosolic fraction, 1291ΔPLD infected w/ inhibitor (300 nM wortmannin or 1 μM cytochalasin D)
  PLD Activity in Ectocervical Cell Fractions [Mean (variance)]: 0.330 (0.07) Fluorescence Units
PLD; Cytosolic fraction, Uninfected w/ inhibitor (300 nM wortmannin or 1 μM cytochalasin D)
  PLD Activity in Ectocervical Cell Fractions [Mean (variance)]: 0.395 (0.03) Fluorescence Units
PLD; Cytosolic fraction, WT 1291 infected w/ inhibitor (300 nM wortmannin or 1 μM cytochalasin D)
  PLD Activity in Ectocervical Cell Fractions [Mean (variance)]: 0.462 ((0.03) Fluorescence Units
PLD; Membrane fraction, 1291ΔPLD infected w/ inhibitor (300 nM wortmannin or 1 μM cytochalasin D)
  PLD Activity in Ectocervical Cell Fractions [Mean (variance)]: 0.393 (0.01) Fluorescence Units
PLD; Membrane fraction, Uninfected w/ inhibitor (300 nM wortmannin or 1 μM cytochalasin D)
  PLD Activity in Ectocervical Cell Fractions [Mean (variance)]: 0.389 (0.01) Fluorescence Units
PLD; Membrane fraction, WT 1291 infected w/ inhibitor (300 nM wortmannin or 1 μM cytochalasin D)
  PLD Activity in Ectocervical Cell Fractions [Mean (variance)]: 0.436 (0.03) Fluorescence Units

## O=C(O)CN(CCOCCOCCN(CC(=O)O)CC(=O)O)CC(=O)O [EGTA, ethylene glycol bis-(2-aminoethyl ether)-N,N, N′, N′ tetraacetic acid]
[1]
  effect on bacterial entry / gonococcal invasion: prohibited bacterial entry

## COC(=O)Nc1nc2ccc(C(=O)c3cccs3)cc2[nH]1 [Nocodazole, nocodazole]
[1]; pretreatment of primary cervical cell monolayers
  decrease in gonococcal invasion: ~67%

## phosphatidylcholine [PtC]
Ectocervical Cells; [3]
  Inhibition (%): 98.7786 (0.08) %
  Invasion (%): 0.0331 (0.01) %
Ectocervical Cells; PtC 0.01 g/ml
  Inhibition (%): 68.8105 (2.15) %
  Invasion (%): 0.8379 (0.03) %
Ectocervical Cells; PtC 0.1 g/ml
  Inhibition (%): 87.3571 (0.28) %
  Invasion (%): 0.3418 (0.01) %
Ectocervical Cells; PtC 1.0 g/ml
  Inhibition (%): 92.4681 (0.38) %
  Invasion (%): 0.2038 (0.01) %

B1: rI domain: recombinant murine I-domain of CR3 alpha-subunit, 23 kilodalton peptide with Myc and His domains (SEQ ID NO: 11) (protein, listed as Mus musculus)
chain: FPQQESDIVFLIDGSGSINNIDFQKMKEFVSTVMEQFKKSKTLFSLMQYSDEFRIHFTFNDFKRNPSPRSHVSPIKQLNGRTKTASGIRKVVRELFHKTNGARENAAKILVVITDGEKFGDPLDYKDVIPEADRAGVIRYVIGVGNAFNKPQSRRELDTIASKPAGEHVFQVDNFEALNTIQNQLQEKIFAIPAAASFL
modifications: Myc and His tags
[2]; rI domain 1 pg/ml
  % inhibition of invasion of primary exocervical cells: 17.4%
[2]; rI domain 10 pg/ml
  % inhibition of invasion of primary exocervical cells: 56.3%
[2]; rI domain 100 pg/ml
  % inhibition of invasion of primary exocervical cells: 77.5%
[2]; rI domain 1 ng/ml
  % inhibition of invasion of primary exocervical cells: 92.1%
[2]; rI domain 1 ng/ml, listed as rI-domain
  % inhibition of invasion of primary exocervical cells: over 90%
[2]; rI domain 10 ng/ml
  % inhibition of invasion of primary exocervical cells: 94.6%
[2]; rI domain 100 ng/ml
  % inhibition of invasion of primary exocervical cells: 96.8%
[2]; rI domain 1 μg/ml, N. gonorrhoeae 1291
  % inhibition of invasion of primary exocervical cells: 98.56%
